The values that follow come from US20210085699A1, “COMBINATION THERAPIES FOR TREATING CANCERS” (priority 2018, published 2021).

Each structure is given as a SMILES string.

Data set [1] deals with AID-positive neoplastic cell lines. Particulars: tissue culture; reference (17); cited from earlier work.
The test system of data set [2] is MEC1 cells. As to the kind of experiment: Ex vivo growth/survival of MEC1 cells. It counts as cell-based, human.
Data set [3] deals with AID knock-out MEC1 (AKO) cells. As to the kind of experiment: Ex vivo growth of AID knock-out MEC1 (AKO) cells. It counts as cell-based, human. Particulars: DIDS vs vehicle. The procedure: (§1) Theoretically, this would result in a truncated, non-functional AID, which was termed AID knock-out MEC1 (AKO) cells. To test the dependence of DIDS on AID, AKO cells were treated with DIDS and compared their growth with that of parental MEC1 cells. […] To test whether AID sufficiency was required for DIDS efficacy in vivo, AKO and parental cells were xenografted in NRG™ mice, and mice were treated with 50 mg/kg of DIDS for two weeks. […] Thus, the therapeutic effect of DIDS in MEC1 xenografts depended on AID.
AID knock out (AKO) MEC1 cell lines were developed by targeting Exon 2 of AID with the following guide RNAs: CTTGATGAACCGGAGGAAG (SEQ ID NO: 1), GTCCGCTGGGCTAAGGGTC (SEQ ID NO: 2), GTGCTACATCCTTTTCAC (SEQ ID NO: 3). These guides were cloned into the Cas9-EGFP vector, pX330 (Addgene, Cat. no. 66582). These vectors were nucleofected into MEC1 cells using Amaxa Cell Line Nucleofector Kit V using program X-001, and according to manufacturer's instructions (Lonza, Cat. no. VACA-1003). Nucleofected cells were sorted for GFP positivity and cloned by limited dilution to generate AKO cell lines. Two independent AKO cell lines (14-1 and 14-3) were confirmed for AID nullizygosity using both genomic and transcript PCRs.

Data set [4] deals with splenocytes, live white blood cells (CD45+ Ter119-PI−). As to the kind of experiment: In vivo DIDS treatment of AID-null mice followed by ex vivo ionizing radiation of splenocytes. More on the design: species or system mouse. The procedure: Whether DIDS could block repair of AID-independent double-strand breaks (frank or single-strand staggered double-strand breaks) in vivo was determined. A common way to generate double-strand breaks is via ionizing radiation (1, 38, 39). For this, AID-null mice were treated with different concentrations of DIDS (0, 5, or 10 mg/kg) for eight hours, and then harvested splenocytes and treated them with different doses of IR (0, 1, 5, 10 Gy). Eighteen hours after IR, the numbers of live white blood cells (CD45+ Ter119-PI−) were measured by flow cytometry.

The test system of data set [5] is human CLL cells from patients. The conditions noted are these: patient cells ex vivo; reference (17); cited from earlier work.
In data set [6] the test system is MEC1 cells. Put plainly: MEC1 xenograft in NRG mice, tumor burden by human CD19+ cells (flow cytometry). It counts as in vivo. On the procedure: To test that hypothesis, the two cell lines were tested for 2DG sensitivity in vivo: immunodeficient NOD.Cg-Rag1^tm1MomIl2rg^tm1Wjl/SzJ (NRG™) mice were xenografted with either MEC1 or CCRF-SB cells, and the mice were then treated with 200 μL of 600 mM 2DG or glucose I.P. three times per week for two weeks. Both MEC1 and CCRF-SB cells migrate to the spleen and bone marrow, and since these mice […] CD19+ B-cells, the tumor burden can be measured terminally in these organs by anti-human CD19 staining via flow cytometry after euthanasia at the end of the treatment period.
Because DIDS was effective in reducing numbers of MEC1 B-cells ex vivo, its effectiveness was tested in vivo. […] MEC1 cells were xenografted into immunodeficient NRG™ mice for two weeks, and mice were then treated either with DIDS at 50 mg/kg or with a 0.1 M potassium bicarbonate/PBS vehicle, once per week for an additional two weeks. NRG™ mice were used because they were deficient in CD19 cells, allowing quantification of MEC1 B-cells by staining spleen cells for human CD19, as the spleen is a homing organ for MEC1 B-cells, all of which are positive for CD19.
Mice were treated I.P. three times weekly for two weeks. 1) mice were dosed I.P. with 10 mg/kg DIDS, a fifth of the dose required to elicit an effect in vivo (FIG. 4D); 2) mice were treated I.P. with 220 mg/kg of 2DG or glucose; a third of the dose of 2DG required for an effect (FIG. 3C); 3) mice were treated with both DIDS and 2DG, at the same doses used in the first two groups; 4) as a positive control, mice were treated with fludarabine, a compound frequently used to treat CLL, at 35 mg/kg, a dose commonly used to elicit an effect; and 5) as a negative control, mice were treated with vehicle consisting of glucose in PBS (41). Following the 2-week treatment period, bone marrow and spleens were assessed for tumor burden, by determining the percentages of human CD19-positive cells via flow cytometry (FIG. 5C).
(§2) Human cancer cell lines were xenografted into NRG mice in the following way: Cells grown in flasks were given fresh media the night before xenograftment and seeded at 10^6 cells per mL. The next day, the cells were washed twice with DPBS without calcium or magnesium and resuspended to 1-2×10^8 cells per mL of DPBS at room temperature and immediately injected via tail vein at 100 μL per mouse. The cells were given 7-10 days to fully xenograft, after which tumor load in the blood was assessed via flow cytometry (FACSCaliber II) for human CD19+ cells (Antibody cat no. 555413, BD Parmingen). Mice with similar tumor loads were assigned to different treatment groups to decrease bias and ensure more even tumor load across treatments. Mice were treated as described in the Results section for two weeks unless otherwise indicated. Upon euthanasia, the spleen and the bone marrow were harvested and stained for human CD19, and the cells were measured by flow cytometry on the FACSCaliber II. Analysis of the flow data was done by Flowjo version 8.8.7 (BD Pharmingen).
Xenografts were done as follows: NOD. Rag1−/− IL-2rg−/− (NRG) mice obtained from the Jackson Laboratory were xenografted for one to two weeks with Non Hogdkin's Leukemia CCRFSB, Chronic lymphocytic leukemia MEC1 cells or MEC1 cells carrying the luciferase gene (MEC1_LUC). Mice were then randomly assigned to treatment or vehicle cohort, and treated for two weeks.

The test system of data set [7] is AID knock-out MEC1 (AKO) cells. As to the kind of experiment: AKO cell xenograft in NRG mice treated with DIDS. It counts as in vivo, human. The conditions noted are these: DIDS 50 mg/kg for two weeks. The procedure:
as §1
as §2, with “Mice with similar tumor loads were assigned to different treatment groups to decrease bias and ensure more even tumor load across treatments. Mice were treated as described in the Results section for two weeks unless otherwise indicated.” left out, “Analysis of the flow data was done by Flowjo version 8.8.7 (BD Pharmingen).” left out

Turning to `O=S(=O)(O)c1cc(N=C=S)ccc1/C=C/c1ccc(N=C=S)cc1S(=O)(=O)O` [DIDS, 4,4′-Diisothiocyano-2,2′-stilbenedisulfonic acid], in data set [1], the “targeting of AID-positive neoplastic cell lines” value is recorded as “could specifically target AID-positive neoplastic cell lines in tissue culture”. Also, the “cytotoxic effect on MEC1 B-cells” value with MEC1 cells [2] (DIDS 0.05 mM, 5 days, 2×10^5 cells) is given as “Cytotoxic effects of DIDS on MEC1 B-cells were seen as early as 5 days”. Also, the “cytotoxic effect on MEC1 B-cells” value in the data set with MEC1 cells [2] (DIDS 0.1 and 0.2 mM, after 5 days) is reported as “significant effect was observed”. In addition, the cell numbers entry in the data set on MEC1 cells [2] (DIDS alone, titrated, day 2) is “reduction of cell numbers as the concentration of DIDS was increased”. Moreover, the “growth rate of AKO cells” value in data set [3] was “grew at a similar rate regardless of whether the cells were treated with vehicle or DIDS”. In data set [4] (DIDS 0, 5 or 10 mg/kg for eight hours in AID-null mice, IR 0, 1, 5, 10 Gy ex vivo, eighteen hours after IR), the “survival of cells after IR” value was “in the presence of DIDS, the effect is significantly greater”. Moreover, the “cell ablation at 10 Gy, normalized to 0 mg/Kg DIDS” value in data set [4] (IR 10 Gy, DIDS 5 or 10 mg/kg) is “even a tenth of the dose of DIDS can synergistically enhance the severity of cell ablation”. The “targeting of AID-positive vs AID-negative human CLL cells” value in data set [5] was “targeted AID-positive, but not AID-negative, human CLL cells”. The “mice showing significant (p=0.001) reduction in number of MEC1 cells in the spleen” value with MEC1 cells [6] (DIDS 50 mg/kg once per week for two weeks, vs vehicle) is given as 10/11. For the same compound, in the data set on MEC1 cells [6] (FIG. 10 legend, MEC1 or MEC1 LUC, DIDS 50 mg/kg for two weeks), the “tumor burden in vivo (luciferase imaging, flow cytometry of bone marrow and spleen)” value is listed as “a high dose of DIDS is required to reduce tumor burden in vivo”. In data set [7], the “spleen weights, AKO vs parental MEC1” value is recorded as “AKO cells were more resistant to DIDS” and the “tumor burden by percentages of human CD19 cells, AKO vs parental MEC1” value was “AKO cells were more resistant to DIDS”.
